Results published in article PMC10077444, “Evaluation of In Vivo Biological Activity Profiles of Isoindole-1,3-dione Derivatives: Cytotoxicity, Toxicology, and Histopathology Studies” (ACS Omega, 2023).
Where “and” joins values, the source holds several entries; their conditions need not be identical. Equal entries are not always repeated. Entries after “also recorded” stand apart in the source; their conditions may differ.

Assays:
[1] = 28 day subacute toxicity study, blood biochemical parameters; details: for ALB / ALT / AST / TBIL: 200 μM group, 100 μL i.v. 3 times a week for 4 weeks, blood
[2] = tested on: CD1 mice; details: in vivo
[3] = Weight and survival of tumor-bearing nude mice during and after treatment; format: in vivo; details: for weight of nude mice: individual mice (1)-(5); for survival of tumor-bearing nude mice: five mice per group, observed for 60 days
Experimental: Male atypical nude mice, 6–8 weeks old, were used for in vivo xenograft tumor models. […] For the purpose of xenograft administration, nude mice were injected subcutaneously with 100 μL of 5 × 10^6 A549-Luc cell suspension. The presence of cancer after cell administration to nude mice was followed by imaging with an IVIS device. In order to monitor tumor formation and tumor volume detection, luciferin [Biovision Inc., USA; 12 mg/mL in phosphate-buffered saline (PBS)] was injected intraperitoneally followed by visualization with IVIS 5 min later. When tumor volume reaches about 2000 mm^3, cancerous nudes are divided into three groups: the control group, 3 group, and 4 group. Grouping was made as 3–5 animals in each group. The following procedures were prepared according to the groups, and then they were implemented. In addition, the weights of nude mice were regularly checked and recorded.
Male atypical nude mice aged 6–8 weeks are commonly used in in vivo xenograft tumor models. A549-luc lung cancer cells were injected into nude mice in all three groups, and tumor growth was induced with a xenograft model. For xenograft administration, 100 μL of 5 × 10^6 A549-luc cell suspension was injected subcutaneously into nude mice. After cell application to nude mice, it was determined whether there was cancer or not by imaging with the IVIS device. After the cancer groups were formed, the treatment phase was started. […] Each prepared sample was given to the animals by tail vein administration, three doses (as described in Section 2.3) per week, and the IVIS images taken at 5 min after luciferin (200 μL of 12 mg/mL stock administered subcutaneously) at certain time intervals were evaluated.

[4] = 28 day subacute toxicity study, weight change
[5] = 3 days, 200 μM, 20 μL tail vein, three doses a week, in g (unit assumed)
[6] = 7 days, 200 μM, 20 μL tail vein, three doses a week, in g (unit assumed)
[7] = 10 days, 200 μM, 20 μL tail vein, three doses a week, in g (unit assumed)
[8] = 15 days, 200 μM, 20 μL tail vein, three doses a week, in g (unit assumed)
[9] = 200 μM, 20 μL tail vein, three doses a week
[10] = initially, 200 μM in DMSO, 20 μL tail vein, three doses a week, in g (unit assumed)

## CC(=O)O[C@H]1C=C[C@H](OC(C)=O)[C@H]2C(=O)N(Cc3ccccc3)C(=O)[C@H]21 [compound 3]
[1]
  ALB: 2.34 ± 0.05
  ALT: 60.5 ± 6.36
  AST: 114 ± 9.90
  TBIL: 0.02 ± 0.01
[1]; 1st dose (200 μM) groups
  increase of AST level compared with the control group: more than the increase related to 4
[2]; both, CD1, mouse, 28 day
  cardiac muscle: increase in the connective tissue between the muscle fibers: higher level compared to the 4 groups
[2]; mouse
  cardiac muscle: discus intercalaris: moderate/high level of erasure
  kidney: severity of histopathological findings, compounds compared: more severe
  liver: severity of histopathological findings, compounds compared: more severe
[3]; [5]
  weight of nude mice: 26.25 and 24.90 and 23.54 and 27.20
[3]; [6]
  weight of nude mice: 28.50 and 25.42 and 24.87 and 29.26 and 30.77
[3]; [7]
  weight of nude mice: 28.52 and 25.98 and 25.89 and 30.26 and 32.07
[3]; [8]
  weight of nude mice: 31.02 and 28.50 and 26.43 and 32.30 and 33.71
[3]; 20 days, Ex = dead, in g (unit assumed)
  weight of nude mice: 32.60 and 30.60 and 28.70 and 33.78 and 36.05
[3]; 30 days, Ex = dead, in g (unit assumed)
  weight of nude mice: 30.90 and 29.40 and 32.96 and 34.86
[3]; 40 days, treatment discontinued on day 30, Ex = dead, in g (unit assumed)
  weight of nude mice: 30.81 and 31.30 and 30.31 and 32.30 and 34.31
[3]; 50 days, treatment discontinued on day 30, Ex = dead, in g (unit assumed)
  weight of nude mice: 30.91 and 33.40 and 31.25 and 33.12 and 34.65
[3]; 60 days, treatment discontinued on day 30, Ex = dead, in g (unit assumed)
  weight of nude mice: 32.39 and 34.65 and 32.60 and 33.37 and 35.95
[3]; [9]
  survival of tumor-bearing nude mice: did not die; also recorded: survived for 60 days
[3]; [10]
  weight of nude mice: 23.58 and 24.10 and 22.14 and 22.18 and 24.24
[4]; 1st dose (200 μM) female, 7d
  Weight, group average: 26.732 G
[4]; 1st dose (200 μM) female, 14d
  Weight, group average: 27.624 G
[4]; 1st dose (200 μM) female, 21d
  Weight, group average: 26.9 G
[4]; 1st dose (200 μM) female, 28d
  Weight, group average: 26.61 G
[4]; 1st dose (200 μM) female, initial
  Weight, group average: 26.516 G
[4]; 1st dose (200 μM) male, 7d
  Weight, group average: 34.102 G
[4]; 1st dose (200 μM) male, 14d
  Weight, group average: 35.088 G
[4]; 1st dose (200 μM) male, 21d
  Weight, group average: 34.89 G
[4]; 1st dose (200 μM) male, 28d
  Weight, group average: 35.932 G
[4]; 1st dose (200 μM) male, initial
  Weight, group average: 33.35 G
[4]; 2nd dose (100 μM) female, 7d
  Weight, group average: 27.582 G
[4]; 2nd dose (100 μM) female, 14d
  Weight, group average: 27.204 G
[4]; 2nd dose (100 μM) female, 21d
  Weight, group average: 27.848 G
[4]; 2nd dose (100 μM) female, 28d
  Weight, group average: 28.604 G
[4]; 2nd dose (100 μM) female, initial
  Weight, group average: 27.71 G
[4]; 2nd dose (100 μM) male, 7d
  Weight, group average: 32.196 G
[4]; 2nd dose (100 μM) male, 14d
  Weight, group average: 33.33 G
[4]; 2nd dose (100 μM) male, 21d
  Weight, group average: 33.42 G
[4]; 2nd dose (100 μM) male, 28d
  Weight, group average: 34.952 G
[4]; 2nd dose (100 μM) male, initial
  Weight, group average: 32.388 G
[4]; 3rd dose (50 μM) female, 7d
  Weight, group average: 23.104 G
[4]; 3rd dose (50 μM) female, 14d
  Weight, group average: 23.97 G
[4]; 3rd dose (50 μM) female, 21d
  Weight, group average: 24.27 G
[4]; 3rd dose (50 μM) female, 28d
  Weight, group average: 25.092 G
[4]; 3rd dose (50 μM) female, initial
  Weight, group average: 24.338 G
[4]; 3rd dose (50 μM) male, 7d
  Weight, group average: 35.528 G
[4]; 3rd dose (50 μM) male, 14d
  Weight, group average: 36.106 G
[4]; 3rd dose (50 μM) male, 21d
  Weight, group average: 36.43 G
[4]; 3rd dose (50 μM) male, 28d
  Weight, group average: 38.348 G
[4]; 3rd dose (50 μM) male, initial
  Weight, group average: 35.076 G

## CC(=O)O[C@@H]1[C@@H]2C(=O)N(Cc3ccccc3)C(=O)[C@@H]2C=C[C@H]1Cl [compound 4]
[1]
  ALB: 2.63 ± 0.07
  ALT: 57.5 ± 0.71
  AST: 94.5 ± 3.54
  TBIL: 0.03 ± 0.03
[3]; [5]
  weight of nude mice: 29.17 and 26.62 and 29.35 and 24.80 and 28.90
[3]; [6]
  weight of nude mice: 33.10 and 30.76 and 32.46 and 25.32 and 30.89
[3]; [7]
  weight of nude mice: 31.71 and 30.85 and 31.40 and 27.13 and 31.24
[3]; [8]
  weight of nude mice: 35.20 and 32.46 and 31.25 and 28.34 and 32.30
[3]; 20 days, Ex = dead
  weight of nude mice: 37.08 and Ex
[3]; 30 days, Ex = dead
  weight of nude mice: 35.54 and Ex
[3]; 40 days, treatment discontinued on day 30, Ex = dead
  weight of nude mice: 34.30 and Ex
[3]; 50 days, treatment discontinued on day 30, Ex = dead
  weight of nude mice: 30.41 and Ex
[3]; 60 days, treatment discontinued on day 30, Ex = dead
  weight of nude mice: 32.95 and Ex
[3]; [9]
  survival of tumor-bearing nude mice: became Ex after 15 days; also recorded: found Ex in their cages after the 3rd dose; also recorded: four nude mice were dead; also recorded: showed Ex after the third dose
[3]; [10]
  weight of nude mice: 24.57 and 22.94 and 24.50 and 23.01 and 24.01
